# Data: paper PMC5913971, “A Novel Piperazine-Based Drug Lead for Cryptosporidiosis from the Medicines for Malaria Venture Open-Access Malaria Box” (Antimicrobial Agents and Chemotherapy, 2018)
# Test system: C. parvum Iowa isolate
# Assay: Immunofluorescence assay for C. parvum growth inhibition in HCT-8 cells
# Format: cell-based, Cryptosporidium parvum
# Conditions: Cryptosporidium parvum, HCT-8, read-out: C. parvum EC50 (95% CI)
# Experimental: Inhibition of C. parvum growth was measured as described previously ([20]). Oocysts were excysted by treatment with 10 mM hydrochloric acid (10 min at 37°C), followed by exposure to 2 mM sodium taurocholate (Sigma-Aldrich) in PBS for 10 min at 16°C. Excysted oocysts were then added to >95% confluent HCT-8 cell monolayers in 384-well plates at a concentration of 5,500 Iowa isolate oocysts per well. For C. parvum field isolates, the inoculum required to yield an infection level similar to that produced by 5,500 Iowa isolate oocysts per well was determined and was used for subsequent assays of parasite inhibition. Compounds were added just before or 3 h after infection, and assay plates were incubated for 48 h postinfection at 37°C under 5% CO2. Wells were then washed three times with PBS containing 111 mM D-galactose, fixed with 4% paraformaldehyde in PBS for 15 min at room temperature, permeabilized with 0.25% Triton X-100 for 10 min at 37°C, washed three times with PBS with 0.1% Tween 20, and blocked with 4% bovine serum albumin (BSA) in PBS for 2 h at 37°C or 4°C overnight. Parasitophorous vacuoles were stained with 1.33 μg/ml of fluorescein-labeled Vicia villosa lectin (Vector Laboratories) diluted in 1% BSA in PBS with 0.1% Tween 20 for 1 h at 37°C, followed by the addition of Hoechst 33258 (AnaSpec) at a final concentration of 0.09 mM diluted in water for another 15 min at 37°C. Wells were then washed five times with PBS containing 0.1% Tween 20. A Nikon Eclipse TE2000 epifluorescence microscope with an automated stage was programmed using NIS-Elements Advanced Research software (Nikon, USA) to focus on the center of each well and take a 3-by-3 composite image using an EXi Blue fluorescence microscopy camera (QImaging, Canada) with a 20× objective (numerical aperture, 0.45). Nucleus and parasite images were exported separately as .tif files and were analyzed using macros developed on the ImageJ platform (National Institutes of Health) ([20]). The only modification from the published macro used to count parasites was that the lower size threshold for parasites was decreased from 16.5 to 4 pixels (1 pixel = 0.65 μm). Graphs were plotted, and half-maximal effective concentration (EC50) and 90% effective concentration (EC90) values were calculated using GraphPad Prism software, version 6.01. For every C. parvum field isolate experiment, a dose-response experiment against the C. parvum Iowa isolate was performed simultaneously as a reference.
row,Structure (SMILES),EC50
1,"c1cc2nncn2nc1N1CCNCC1 [Compound D-53, N1CCN(CC1)c1ccc2n(n1)cnn2]",> 25 µM

# Same assay, conditions: Cryptosporidium parvum, HCT-8; Table S3, SAR of MMV665917; read-out: C. parvum EC50 (95% CI)
row,Structure (SMILES),EC50
1,"CN1CCN(c2ccc3nnc(C(F)(F)F)n3n2)CC1 [Compound D-2, CN1CCN(CC1)c1ccc2n(n1)c(nn2)C(F)(F)F]",> 25 µM
2,"FC(F)(F)c1nnc2ccc(N3CCN(Cc4ccccc4)CC3)nn12 [Compound D-3, FC(c1nnc2n1nc(cc2)N1CCN(CC1)Cc1ccccc1)(F)F]",> 25 µM
3,"CCOC(=O)N1CCN(c2ccc3nnc(C(F)(F)F)n3n2)CC1 [Compound D-4, CCOC(=O)N1CCN(CC1)c1ccc2n(n1)c(nn2)C(F)(F)F]",> 25 µM
4,"c1ccc(N2CCN(c3ccc4nncn4n3)CC2)cc1 [Compound D-9, c1ccc(cc1)N1CCN(CC1)c1ccc2n(n1)cnn2]",> 25 µM
5,"CC(=O)N1CCN(c2ccc3nnc(C(F)(F)F)n3n2)CC1 [Compound D-12, CC(=O)N1CCN(CC1)c1ccc2n(n1)c(nn2)C(F)(F)F]",> 25 µM
6,"O=C(Nc1ccccc1)N1CCN(c2ccc3nncn3n2)CC1 [Compound D-18, O=C(N1CCN(CC1)c1ccc2n(n1)cnn2)Nc1ccccc1]",> 25 µM
7,"O=C(Nc1ccc2c(c1)OCO2)N1CCN(c2ccc3nncn3n2)CC1 [Compound D-19, O=C(N1CCN(CC1)c1ccc2n(n1)cnn2)Nc1ccc2c(c1)OCO2]",> 25 µM
8,"O=C(NC1CCCCC1)N1CCN(c2ccc3nncn3n2)CC1 [Compound D-20, O=C(N1CCN(CC1)c1ccc2n(n1)cnn2)NC1CCCCC1]",> 25 µM
9,"Cc1nnc2ccc(N3CCN(C(=O)NCc4ccccc4)CC3)nn12 [Compound D-21, O=C(N1CCN(CC1)c1ccc2n(n1)c(C)nn2)NCc1ccccc1]",> 25 µM
10,"O=C(NC1CCCCC1)N1CCN(c2ccc3nnc(C4CC4)n3n2)CC1 [Compound D-22, O=C(N1CCN(CC1)c1ccc2n(n1)c(nn2)C1CC1)NC1CCCCC1]",> 25 µM
11,"O=S(=O)(c1ccc(Cl)cc1)N1CCN(c2ccc3nncn3n2)CC1 [Compound D-23, Clc1ccc(cc1)S(=O)(=O)N1CCN(CC1)c1ccc2n(n1)cnn2]",> 25 µM
12,"O=C(COc1ccc(F)cc1)N1CCN(c2ccc3nncn3n2)CC1 [Compound D-26, Fc1ccc(cc1)OCC(=O)N1CCN(CC1)c1ccc2n(n1)cnn2]",20 µM
13,"O=C(Nc1cccc(C(F)(F)F)c1)N1CCN(c2ccc3nncn3n2)CC1 [Compound D-27, O=C(N1CCN(CC1)c1ccc2n(n1)cnn2)Nc1cccc(c1)C(F)(F)F]",17 µM
14,"O=C(Nc1ccc(Cl)c(Cl)c1)N1CCN(c2ccc3nncn3n2)CC1 [Compound D-28, O=C(N1CCN(CC1)c1ccc2n(n1)cnn2)Nc1ccc(c(c1)Cl)Cl]",0.55 µM
15,"O=C(c1ccc(F)cc1)N1CCN(c2ccc3nnc(C4CC4)n3n2)CC1 [Compound D-29, Fc1ccc(cc1)C(=O)N1CCN(CC1)c1ccc2n(n1)c(nn2)C1CC1]",> 25 µM
16,"COc1ccc(N2CCN(c3ccc4nncn4n3)CC2)cc1 [Compound D-31, COc1ccc(cc1)N1CCN(CC1)c1ccc2n(n1)cnn2]",> 25 µM
17,"O=C(Nc1cc(Cl)ccc1Cl)N1CCN(c2ccc3nncn3n2)CC1 [Compound D-32, Clc1ccc(c(c1)NC(=O)N1CCN(CC1)c1ccc2n(n1)cnn2)Cl]",~24.8 µM
18,"CCOc1ccccc1NC(=O)N1CCN(c2ccc3nncn3n2)CC1 [Compound D-33, CCOc1ccccc1NC(=O)N1CCN(CC1)c1ccc2n(n1)cnn2]",> 25 µM
19,"COc1ccc(C)cc1NC(=O)N1CCN(c2ccc3nncn3n2)CC1 [Compound D-34, COc1ccc(cc1NC(=O)N1CCN(CC1)c1ccc2n(n1)cnn2)C]",> 25 µM
20,"COc1cc(NC(=O)N2CCN(c3ccc4nncn4n3)CC2)cc(OC)c1 [Compound D-35, COc1cc(cc(c1)OC)NC(=O)N1CCN(CC1)c1ccc2n(n1)cnn2]",> 25 µM
21,"CC(C)c1ccc(NC(=O)N2CCN(c3ccc4nncn4n3)CC2)cc1 [Compound D-36, O=C(N1CCN(CC1)c1ccc2n(n1)cnn2)Nc1ccc(cc1)C(C)C]",> 25 µM
22,"O=C(Nc1cc(F)ccc1F)N1CCN(c2ccc3nncn3n2)CC1 [Compound D-37, Fc1ccc(c(c1)NC(=O)N1CCN(CC1)c1ccc2n(n1)cnn2)F]",> 25 µM

row,Structure (SMILES),EC50
1,"O=C(Nc1ccc(F)c(Cl)c1)N1CCN(c2ccc3nncn3n2)CC1 [Compound D-38, O=C(N1CCN(CC1)c1ccc2n(n1)cnn2)Nc1ccc(c(c1)Cl)F]",12 µM
2,"COc1ccc(OC)c(NC(=O)N2CCN(c3ccc4nncn4n3)CC2)c1 [Compound D-40, COc1ccc(cc1NC(=O)N1CCN(CC1)c1ccc2n(n1)cnn2)OC]",> 25 µM
3,"O=C(COc1cccc(Cl)c1)N1CCN(c2ccc3nncn3n2)CC1 [Compound D-41, Clc1cccc(c1)OCC(=O)N1CCN(CC1)c1ccc2n(n1)cnn2]",18 µM
4,"O=C(Cc1ccccc1Cl)N1CCN(c2ccc3nncn3n2)CC1 [Compound D-42, O=C(N1CCN(CC1)c1ccc2n(n1)cnn2)Cc1ccccc1Cl]",> 25 µM
5,"O=C(Nc1ccc(F)c(Cl)c1)N1CCN(c2ccc3nnc(C4CC4)n3n2)CC1 [Compound D-43, O=C(N1CCN(CC1)c1ccc2n(n1)c(nn2)C1CC1)Nc1ccc(c(c1)Cl)F]",> 25 µM
6,"CN(C)S(=O)(=O)c1ccc(C(=O)N2CCN(c3ccc4nncn4n3)CC2)cc1 [Compound D-44, O=C(c1ccc(cc1)S(=O)(=O)N(C)C)N1CCN(CC1)c1ccc2n(n1)cnn2]",7.1 µM
7,"NS(=O)(=O)c1ccc(C(=O)N2CCN(c3ccc4nncn4n3)CC2)cc1 [Compound D-45, O=C(c1ccc(cc1)S(=O)(=O)N)N1CCN(CC1)c1ccc2n(n1)cnn2]",> 25 µM
8,"O=C(c1ccc(Cl)cc1)N1CCN(c2ccc3nncn3n2)CC1 [Compound D-46, Clc1ccc(cc1)C(=O)N1CCN(CC1)c1ccc2n(n1)cnn2]",> 25 µM
9,"O=C(c1cc(Cl)ccc1Cl)N1CCN(c2ccc3nncn3n2)CC1 [Compound D-47, Clc1ccc(c(c1)C(=O)N1CCN(CC1)c1ccc2n(n1)cnn2)Cl]",> 25 µM
10,"O=C(c1ccc(S(=O)(=O)N2CCCC2)cc1)N1CCN(c2ccc3nncn3n2)CC1 [Compound D-48, O=C(c1ccc(cc1)S(=O)(=O)N1CCCC1)N1CCN(CC1)c1ccc2n(n1)cnn2]",> 25 µM
11,"O=C(Cc1noc2ccccc12)N1CCN(c2ccc3nncn3n2)CC1 [Compound D-49, O=C(N1CCN(CC1)c1ccc2n(n1)cnn2)Cc1noc2c1cccc2]",> 25 µM
12,"O=C(COc1ccc(Cl)cc1Cl)N1CCN(c2ccc3nncn3n2)CC1 [Compound D-50, Clc1ccc(c(c1)Cl)OCC(=O)N1CCN(CC1)c1ccc2n(n1)cnn2]",16 µM
13,"CC(Oc1ccc(Cl)cc1Cl)C(=O)N1CCN(c2ccc3nncn3n2)CC1 [Compound D-51, Clc1ccc(c(c1)Cl)OC(C(=O)N1CCN(CC1)c1ccc2n(n1)cnn2)C]",> 25 µM
14,"Cc1nnc2ccc(N3CCN(C(=O)OC(C)(C)C)CC3)nn12 [Compound D-60, O=C(N1CCN(CC1)c1ccc2n(n1)c(C)nn2)OC(C)(C)C]",> 25 µM
15,"O=C(Nc1ccc(Cl)c(Cl)c1)N1CCN(c2ccccc2)CC1 [Compound D-74, O=C(Nc1ccc(Cl)c(Cl)c1)N2CCN(CC2)c3ccccc3]",20 µM
16,"O=C(Nc1ccc(C(F)(F)F)cc1)N1CCN(c2ccc3nncn3n2)CC1 [Compound D-75, FC(F)(F)c1ccc(cc1)NC(=O)N2CCN(CC2)c3ccc4nncn4n3]",11 µM
17,"O=C(Nc1ccc(OC(F)(F)F)cc1)N1CCN(c2ccc3nncn3n2)CC1 [Compound D-76, FC(F)(F)Oc1ccc(cc1)NC(=O)N2CCN(CC2)c3ccc4nncn4n3]",> 25 µM
18,"O=C(Nc1cccc(Cl)c1)N1CCN(c2ccc3nncn3n2)CC1 [Compound D-77, Clc1cccc(c1)NC(=O)N2CCN(CC2)c3ccc4nncn4n3]",~23.7 µM
19,"O=S(=O)(c1ccc(Oc2ccccc2)cc1)N1CCN(c2ccc3nncn3n2)CC1 [Compound D-79, O=S(N1CCN(C2=NN3C(C=C2)=NN=C3)CC1)(C4=CC=C(OC5=CC=CC=C5)C=C4)=O]",12 µM
20,"O=C(Nc1ccc(Cl)c(Cl)c1)N1CCN(c2nc3ccccc3[nH]2)CC1 [Compound D-80, O=C(N1CCN(C2=NC3=C(C=CC=C3)N2)CC1)NC4=CC=C(Cl)C(Cl)=C4]",17 µM
21,"O=C(Nc1ccc(Cl)c(Cl)c1)N1CCN(CCn2cccn2)CC1 [Compound D-81, O=C(N1CCN(CCN2N=CC=C2)CC1)NC3=CC=C(Cl)C(Cl)=C3]",> 25 µM

# Same assay, conditions: Cryptosporidium parvum; inside HCT-8 cells, 48 h incubation; Fig. 1; read-out: EC50, anti-C. parvum dose response
row,Structure (SMILES),EC50
1,"O=C(COc1cccc(Cl)c1)N1CCN(c2ccc3nncn3n2)CC1 [Compound D-41, Clc1cccc(c1)OCC(=O)N1CCN(CC1)c1ccc2n(n1)cnn2]",~18 µM

# Same assay, conditions: Table S3, SAR of MMV665917; read-out: C. parvum EC50 (95% CI)
row,Structure (SMILES),EC50
1,"O=C(Nc1ccc(Cl)cc1)N1CCN(c2ccc3nncn3n2)CC1 [Compound D-78, O=C(N1CCN(C2=NN3C(C=C2)=NN=C3)CC1)NC5=CC=C(Cl)C=C5]",> 25 µM
